Our source for the MIC values is US20200071361A1, “ENGINEERED ANTIMICROBIAL AMPHIPHILIC PEPTIDES AND METHODS OF USE” (priority 2017, published 2020).

Test in all cases: Broth microdilution MIC (Table 2)
Common to all, as to format: cell-based

Assay [1] relates to Escherichia coli ATCC 25922 (QC). As to conditions: ATCC25922.
The test system of assay [2] is Pseudomonas aeruginosa ATCC BAA-2109 (MDR). The conditions noted are these: ATCCBAA2109.
Assay [3] deals with Pseudomonas aeruginosa ATCC 27853 (non-MDR; QC). As to conditions: ATCC27853, read-out: MIC.
The test system of assay [4] is Streptococcus agalactiae ATCC 13813. As to conditions: ATCC13813, read-out: MIC.
The subject of assay [5] is Staphylococcus aureus NRS382 (USA100; HA-MRSA). As to conditions: read-out: MIC.
Assay [6] relates to Escherichia coli ATCC BAA-2471 (NDM-1). As to conditions: ATCCBAA2471.
Assay [7] deals with Enterococcus faecalis ATCC 700802 (V583 VRE). As to conditions: read-out: MIC.
Assay [8] deals with Streptococcus pyogenes ATCC 49399. The conditions noted are these: ATCC49399, read-out: MIC.
The subject of assay [9] is Staphylococcus aureus ATCC 29213 (MSSA; QC). As to conditions: read-out: MIC.
The test system of assay [10] is Staphylococcus aureus ATCC 43300 (MRSA). As to conditions: read-out: MIC.
The test system of assay [11] is Klebsiella pneumoniae ATCC BAA-1705 (KPC). The conditions noted are these: ATCCBAA1705.
Assay [12] concerns Streptococcus pneumoniae ATCC 49619 (QC). The conditions noted are these: ATCC49619, read-out: MIC.

≈ marks a conversion by molar mass, not a printed value.

For orientation: MIC means the smallest concentration in the dilution series that meets the test's criterion for growth inhibition. As for `C[C@H]1COc2c(N3CCN(C)CC3)c(F)cc3c(=O)c(C(=O)O)cn1c23` [Levofloxacin], the MIC in [1] was 0.015 µg/mL (≈ 0.0415 µM); in [2], 1 µg/mL (≈ 2.77 µM); in assay [3] it was 1 µg/mL (≈ 2.77 µM); in [4], 0.5 µg/mL (≈ 1.38 µM); in assay [5], 8 µg/mL (≈ 22.1 µM); in assay [6], 64 µg/mL (≈ 177 µM). For the same molecule, the MIC in assay [7] stood at 0.5 µg/mL (≈ 1.38 µM); in [8], 0.5 µg/mL (≈ 1.38 µM); in assay [9], 0.25 µg/mL (≈ 0.692 µM); in assay [10], 0.25 µg/mL (≈ 0.692 µM); in assay [11] it was 64 µg/mL (≈ 177 µM); in assay [12], 1 µg/mL (≈ 2.77 µM).
